Activity calls are given as the source filed them. The rule behind the calls is not given here.
Assays:
[1] = tested on: Mus musculus; assay: Antinociceptive activity in Swiss mouse assessed as inhibition of capsaicin-induced nociception at 100 mg/kg, po administered 1 hr followed by capsaicin challenge measured for 5 mins relative to vehicle-treated control; type: functional
[2] = tested on: Mus musculus; assay: Antinociceptive activity in Swiss mouse assessed as inhibition of CFA-induced mechanical allodynia at 100 mg/kg, po after 2 hrs relative to vehicle-treated control; type: functional
[3] = tested on: Mus musculus; assay: Antinociceptive activity in Swiss mouse assessed as inhibition of CFA-induced mechanical allodynia at 100 mg/kg, po measured over 6 hrs; type: functional, organism-based
[4] = tested on: Mus musculus; assay: Antinociceptive activity in po dosed Swiss mouse assessed as inhibition of CFA-induced mechanical allodynia after 2 hrs; type: functional; conditions: read-out: ID50 (the source's name)
[5] = tested on: Mus musculus; assay: Antinociceptive activity in Swiss mouse assessed as inhibition of CFA-induced mechanical allodynia at 300 mg/kg, po after 2 hrs relative to vehicle-treated control; type: functional
[6] = tested on: Mus musculus; assay: Toxicity in Swiss mouse assessed as effect on spontaneous locomotor activity at 100 mg/kg, po after 1 hr by open field test; type: organism-based; conditions: in vivo
[7] = tested on: Mus musculus; assay: Toxicity in Swiss mouse assessed as effect on forced locomotor activity at 100 mg/kg, po after 1 hr by rotarod test; type: organism-based; conditions: in vivo
[8] = tested on: Mus musculus; assay: Antinociceptive activity in Swiss mouse assessed as inhibition of CFA-induced mechanical allodynia at 100 mg/kg, po measured over 4 hrs; type: functional, organism-based

`FC(F)(F)c1nc(-n2cccc2)nc2c1C1(CCCCC1)Oc1ccccc1-2` was tested, and the Imax [1] was 83%, the inhibition in vivo at 100 mg/kg [2] was ≤ 68% and the inhibition [3] was “Active”. The ED50 [4] was 422 mg/kg, the Imax [5] was 66% and the Activity [6] was “Non-Toxic”. The Activity [7] was “Non-Toxic”.
For `FC(F)(F)c1nc(-n2cccc2)nc2c1C1(CCCC1)Oc1ccccc1-2`, the inhibition [1] was “Active”.
`FC(F)(F)c1nc(-c2ccccc2)nc2c1C1(CCCC1)Oc1ccccc1-2` was tested, and the inhibition [1] was “Active”.
For `FC(F)(F)c1nc(-c2ccccc2)nc2c1C1(CCCCCC1)Oc1ccccc1-2`, the inhibition [1] was “Active”.
For `CC(C(=O)O)c1cccc(C(=O)c2ccccc2)c1` (stereo not given) [KETOPROFEN], the inhibition in vivo at 100 mg/kg ([1]; Mus musculus, Swiss, po) was 80%, the inhibition in vivo at 100 mg/kg [2] was ≤ 65% and the inhibition [8] was “Active”. It also gave an ED50 [4] of 169 mg/kg and an Imax [5] of 75%.
In the case of `Nc1nc2c(c(C(F)(F)F)n1)C1(CCCC1)Oc1ccccc1-2`, the inhibition [1] is reported as “Active”.
`Nc1nc2c(c(C(F)(F)F)n1)C1(CCCCCC1)Oc1ccccc1-2` was tested, and the inhibition [1] was “Active”.
In the case of `FC(F)(F)c1nc(-n2cccc2)nc2c1C1(CCCCCC1)Oc1ccccc1-2`, the inhibition [1] is reported as “Active”.
In the case of `FC(F)(F)c1nc(-c2ccccc2)nc2c1C1(CCCCC1)Oc1ccccc1-2`, the inhibition [1] is reported as “Active”.
In the case of `Nc1nc2c(c(C(F)(F)F)n1)C1(CCCCC1)Oc1ccccc1-2`, the inhibition [1] is reported as “Active”.
